Data as given in US20060079566A1, “PDK-1/Akt signaling inhibitors” (priority 2003, published 2006).

How the values were obtained:
MALNE-3M = assay: NCI DTP screen (SRB), Melanoma; format: cell-based
MCP7 = assay: NCI DTP screen (SRB), Breast Cancer; format: cell-based, human; details: MCP7
Description: (§1) Screening of compounds 70 and 71 against several cancer cell lines The human tumor cell lines of the cancer screening panel are grown in RPMI 1640 medium containing 5% fetal bovine serum and 2 mM L-glutamine. For a typical screening experiment, cells are inoculated into 96 well microtiter plates in 100 μL at plating densities ranging from 5,000 to 40,000 cells/well depending on the doubling time of individual cell lines. After cell inoculation, the microtiter plates are incubated at 37° C., 5% CO2, 95% air and 100% relative humidity for 24 h prior to addition of experimental drugs.
(§2) After 24 h, two plates of each cell line are fixed in situ with TCA, to represent a measurement of the cell population for each cell line at the time of drug addition (Tz). Experimental drugs are solubilized in dimethyl sulfoxide at 400-fold the desired final maximum test concentration and stored frozen prior to use. At the time of drug addition, an aliquot of frozen concentrate is thawed and diluted to twice the desired final maximum test concentration with complete medium containing 50 μg/ml gentamicin. Additional four, 10-fold or ½ log serial dilutions are made to provide a total of five drug concentrations plus control. Aliquots of 100 μl of these different drug dilutions are added to the appropriate microtiter wells already containing 100 μl of medium, resulting in the required final drug concentrations.
(§3) Following drug addition, the plates are incubated for an additional 48 h at 37° C., 5% CO2, 95% air, and 100% relative humidity. For adherent cells, the assay is terminated by the addition of cold TCA. Cells are fixed in situ by the gentle addition of 50 μl of cold 50% (w/v) TCA (final concentration, 10% TCA) and incubated for 60 minutes at 4° C. The supernatant is discarded, and the plates are washed five times with tap water and air dried. Sulforhodamine B (SRB) solution (100 μl) at 0.4% (w/v) in 1% acetic acid is added to each well, and plates are incubated for 10 minutes at room temperature. After staining, unbound dye is removed by washing five times with 1% acetic acid and the plates are air dried. Bound stain is subsequently solubilized with 10 mM trizma base, and the absorbance is read on an automated plate reader at a wavelength of 515 nm. For suspension cells, the methodology is the same except that the assay is terminated by fixing settled cells at the bottom of the wells by gently adding 50 μl of 80% TCA (final concentration, 16% TCA). Using the seven absorbance measurements [time zero, (Tz), control growth, (C), and test growth in the presence of drug at the five concentration levels (Ti)], the percentage growth is calculated at each of the drug concentrations levels. Percentage growth inhibition is calculated as: [(Ti−Tz)/(C−Tz)]×100 for concentrations for which Ti>/=Tz [(Ti−Tz)/Tz]×100 for concentrations for which Ti<Tz
(§4) Three dose response parameters are calculated for each experimental agent. […] The drug concentration resulting in total growth inhibition (TGI) is calculated from Ti=Tz. […] Values are calculated for each of these three parameters if the level of activity is reached; however, if the effect is not reached or is exceeded, the value for that parameter is expressed as greater or less than the maximum or minimum concentration tested.

immunoprecipitated Akt = assay: Direct inhibition of immunoprecipitated Akt kinase activity; format: biochemical, human
NCI-H322M = assay: NCI DTP screen (SRB), Non-Small Cell Lung Cancer; format: cell-based; details: NCI-H322M
Description: as §1, §2, §3, §4

HOP-62 = assay: NCI DTP screen (SRB), Non-Small Cell Lung Cancer; format: cell-based; details: Homo sapiens
Description: as §1, §2, §3, §4

NCI-H460 = assay: NCI DTP screen (SRB), Non-Small Cell Lung Cancer; format: cell-based
Description: as §1, §2, §3, §4

NCI-H226 = assay: NCI DTP screen (SRB), Non-Small Cell Lung Cancer; format: cell-based; details: Homo sapiens
Description: as §1, §2, §3, §4

A549/ATCC = assay: NCI DTP screen (SRB), Non-Small Cell Lung Cancer; format: cell-based; details: Homo sapiens
Description: as §1, §2, §3, §4

EKVX = assay: NCI DTP screen (SRB), Non-Small Cell Lung Cancer; format: cell-based; details: Homo sapiens
Description: as §1, §2, §3, §4

NCI-H23 = assay: NCI DTP screen (SRB), Non-Small Cell Lung Cancer; format: cell-based; details: Homo sapiens
Description: as §1, §2, §3, §4

SK-MEL-28 = assay: NCI DTP screen (SRB), Melanoma; format: cell-based; details: Homo sapiens
Description: as §1, §2, §3, §4

U251 = assay: NCI DTP screen (SRB), CNS Cancer; format: cell-based, human; details: Homo sapiens, U-251
Description: as §1, with “drugs. […]” for “drugs.”
Following drug addition, the plates are incubated for an additional 48 h at 37° C., 5% CO2, 95% air, and 100% relative humidity. […] Bound stain is subsequently solubilized with 10 mM trizma base, and the absorbance is read on an automated plate reader at a wavelength of 515 nm. […] Using the seven absorbance measurements [time zero, (Tz), control growth, (C), and test growth in the presence of drug at the five concentration levels (Ti)], the percentage growth is calculated at each of the drug concentrations levels. Percentage growth inhibition is calculated as: [(Ti−Tz)/(C−Tz)]×100 for concentrations for which Ti>/=Tz [(Ti−Tz)/Tz]×100 for concentrations for which Ti<Tz
Three dose response parameters are calculated for each experimental agent. […]

[1] = tested on: sixty human tumor cell lines; assay: NCI DTP sixty cell line assay, means over the panel; format: cell-based
Description: as §1, §2, §3, §4

PC-3 cells = assay: Cell viability analysis (MTT) in PC-3 cells; format: cell-based, human; details: Homo sapiens; inducing apoptotic death in PC-3 cells / PC-3 cell viability; read-out: IC50 PC-3
Description: Cell Culture PC-3 (p53−/−) human androgen-nonresponsive prostate cancer cells were purchased from the American […] (Manassas, Va.). Cells were cultured in RPMI 1640 medium (Gibco, Grand Island, N.Y.) supplemented with 10% fetal bovine serum (FBS; Gibco) at 37° C. in a humidified incubator containing 5% CO2.
Cell viability analysis The effect of 4-[5-(4-methylphenyl)-3-(trifluoromethyl)-1H-pyrazol-1-yl]benzenesulfonamide and its derivatives on PC-3 cell viability was assessed by using the MTT {[3-(4,5-dimethylthiazol-2-yl)-2,5-diphenyl-2H-tetrazolium bromide]} assay in six replicates. Cells were grown in 10% FBS-supplemented RPMI 1640 medium in 96-well, flat bottomed plates for 24 h, and were exposed to various concentrations of compounds 1-36 dissolved in DMSO (final concentration ≦0.1%) in 1% serum-containing RPMI 1640 medium for different time intervals. Controls received DMSO vehicle at a concentration equal to that in drug-treated cells. The medium was removed, replaced by 200 μl of 0.5 mg/ml of MTT in 10% FBS-containing RPMI-1640 medium, and cells were incubated in the CO2 incubator at 37° C. for 2 h. Supernatants were removed from the wells, and the reduced MTT dye was solubilized in 200 μL/well DMSO. Absorbance at 570 nm was determined on a plate reader.

[2] = MALNE-3M, Log10 Concentration −5.0

Structure (SMILES): NCC(=O)Nc1ccc(-n2nc(C(F)(F)F)cc2-c2ccc3c(ccc4ccccc43)c2)cc1 [Compound 70, 2-Amino-N-{4-[5-(2-phenanthrenyl)-3-(trifluoromethyl)-1H-pyrazol-1-yl]-phenyl}-acetamide]
- CC50 (MALNE-3M; Homo sapiens, read-out: LC50): 7730 nM
- Mean Optical Densities (MALNE-3M; [2]): 0.218
- Percent Growth (MALNE-3M; [2]): −67%
- Percent Growth (MALNE-3M; MALNE-3M, Log10 Concentration −6.0): 87%
- GI50 (MCP7; Homo sapiens): 718 nM
- Percent Growth (MCP7; Log10 Concentration −5.0): −57%
- Percent Growth (MCP7; Log10 Concentration −6.0): 43%
- direct inhibitory effect on immunoprecipitated Akt kinase activity (immunoprecipitated Akt): no appreciable direct inhibition
- CC50 (NCI-H322M; Homo sapiens, read-out: LC50): 5400 nM
- Mean Optical Densities (NCI-H322M; Log10 Concentration −5.0): 1.100
- Percent Growth (NCI-H322M; Log10 Concentration −8.0): 60%
- GI50 (HOP-62; HOP-62): 1270 nM
- CC50 (HOP-62; HOP-62, read-out: LC50): 7130 nM
- GI50 (NCI-H460; Homo sapiens, NCI-H460): 421 nM
- CC50 (NCI-H460; Homo sapiens, NCI-H460, read-out: LC50): > 100000 nM
- Percent Growth (NCI-H460; NCI-H460, Log10 Concentration −5.0): −66%
- Mean Optical Densities (NCI-H460; NCI-H460, Log10 Concentration −6.0): 1.830
- GI50 (NCI-H226): 1200 nM
- GI50 (A549/ATCC): 1020 nM
- GI50 (EKVX): 1490 nM
- GI50 (NCI-H23; NCI-H23): 1300 nM
- CC50 (NCI-H23; NCI-H23, read-out: LC50): 6330 nM
- GI50 (SK-MEL-28; SK-MEL-28): 1220 nM
- CC50 (SK-MEL-28; SK-MEL-28, read-out: LC50): 5690 nM
- GI50 (U251): 775 nM
- range in which cell growth is completely suppressed in a diverse range of tumor cell lines [1]: 3 to 5 µM
- CC50 ([1]; Homo sapiens, 48 h, read-out: mean LC50 among the sixty cell lines): 24000 nM
- GI50 ([1]; Homo sapiens, 48 h, two-day treatment, serum-containing medium, read-out: mean GI50 among the sixty cell lines): 1100 nM
- concentration at which many cell lines respond to the growth inhibitory effect ([1]; two-day exposure, 5% FBS-containing medium): ≥ 0.1 µM
- IC50 (PC-3 cells): 5000 nM
